Results from US20260297083A1, “SUBSTITUTED ACETYLENE COMPOUND DERIVATIVES AND THEIR PHARMACEUTICAL USE” (AVELOS THERAPEUTICS INC., priority 2023, published 2026).

Molecular target: T1, Polθ polymerase domain (amino acids 1792-2590) (Homo sapiens, UniProt O75417)
T1 construct: 10×Histidine-SUMO (N, cleaved yes); made in house; host or cells: E. coli
T1 sequence (O75417 1792-2590): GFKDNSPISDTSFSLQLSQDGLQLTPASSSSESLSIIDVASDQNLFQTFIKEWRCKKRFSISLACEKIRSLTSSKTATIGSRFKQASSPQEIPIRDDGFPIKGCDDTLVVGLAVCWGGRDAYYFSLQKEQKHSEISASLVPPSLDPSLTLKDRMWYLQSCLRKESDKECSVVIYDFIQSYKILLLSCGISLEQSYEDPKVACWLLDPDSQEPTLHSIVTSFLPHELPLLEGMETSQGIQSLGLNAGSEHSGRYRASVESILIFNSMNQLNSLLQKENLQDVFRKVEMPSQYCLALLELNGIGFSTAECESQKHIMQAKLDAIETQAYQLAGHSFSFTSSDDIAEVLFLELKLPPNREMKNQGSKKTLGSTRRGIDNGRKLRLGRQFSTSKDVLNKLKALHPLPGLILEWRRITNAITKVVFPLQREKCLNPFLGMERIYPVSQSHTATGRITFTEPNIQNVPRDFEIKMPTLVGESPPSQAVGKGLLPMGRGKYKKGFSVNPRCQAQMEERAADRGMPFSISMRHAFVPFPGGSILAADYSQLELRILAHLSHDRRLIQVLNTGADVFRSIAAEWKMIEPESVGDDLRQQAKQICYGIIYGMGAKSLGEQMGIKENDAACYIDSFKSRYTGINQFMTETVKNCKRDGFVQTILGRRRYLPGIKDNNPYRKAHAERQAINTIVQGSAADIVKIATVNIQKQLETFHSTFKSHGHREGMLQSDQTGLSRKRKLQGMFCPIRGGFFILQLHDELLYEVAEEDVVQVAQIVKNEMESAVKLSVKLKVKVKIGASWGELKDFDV
Assay: Picogreen assay of Polθ polymerase activity
Type: biochemical
Conditions: 12-point concentration response, 90 minutes incubation at room temperature, 8 nM Polθ in 2×polymerase mixture, read-out: PolQ IC50
Method in brief: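 E. coli-expressed polymerase domain with His-SUMO tag removed; 2× enzyme mix (8 nM) combined with 2× substrate mix (100 nM annealed primer/template DNA, 40 uM dNTPs). Buffer 25 mM Tris-HCl pH 7.5, 12.5 mM NaCl, 0.5 mM MgCl2, 1 mM DTT. Reaction 90 min at room temperature, then EDTA/Picogreen stain read at 485/520 nm; 12-point IC50.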

Question: With `C=CC(=O)Nc1ccncc1C#CCN(C(=O)[C@@H]1CCS(=O)(=O)N1c1cc(C(F)(F)F)cc(C)n1)c1ccc(F)c(C)c1` [compound 143, (S)-N-(3-(4-acrylamidopyridin-3-yl)prop-2-yn-1-yl)-N-(4-fluoro-3-methylphenyl)-2-(6-methyl-4-(trifluoromethyl)pyridin-2-yl)isothiazolidine-3-carboxamide 1,1-dioxide] as the compound, how does the IC50 read?
Answer: 0.051 to 0.1 µM

Question: How did the IC50 turn out when `C=CC(=O)Nc1cnccc1C#CCN(C(=O)[C@@H]1CCS(=O)(=O)N1c1cc(C(F)(F)F)cc(C)n1)c1ccc(F)c(C)c1` [compound 144, (S)-N-(3-(3-acrylamidopyridin-4-yl)prop-2-yn-1-yl)-N-(4-fluoro-3-methylphenyl)-2-(6-methyl-4-(trifluoromethyl)pyridin-2-yl)isothiazolidine-3-carboxamide 1,1-dioxide] was run?
Answer: 0.051 to 0.1 µM

Question: `Cc1cc(C(F)(F)F)cc(N2[C@H](C(=O)N(CC#Cc3ccc(C(N)=O)nc3)c3ccc(F)c(C)c3)CC3(CC3)S2(=O)=O)n1` [compound 145, (S)—N-(3-(6-carbamoylpyridin-3-yl)prop-2-yn-1-yl)-N-(4-fluoro-3-methylphenyl)-5-(6-methyl-4-(trifluoromethyl)pyridin-2-yl)-4-thia-5-azaspiro [2,4]heptane-6-carboxamide 4,4-dioxide] was tested. Which IC50 did it give?
Answer: 0.001 to 0.05 µM

System: DLD-1 BRCA2(−/−) Cell
Assay: Cell viability assay (Resazurin) in DLD1-BRCA2 cells
Type: cell-based
Conditions: Homo sapiens, DLD-1, 336 h, 14 days, 1,500 cells/well, final DMSO 1%
Protocol: DLD1-BRCA2 KG (Horizon Discovery, Cat #HD 105-007) cells and DLD1-parental cells were maintained in culture media (RPMI-1640 including 2 mM L-glutamin and 25 mM sodium bicarbonate, supplemented with 10% FBS), at 37° C. in a humidified atmosphere with 5% CO2. Cells were seeded at the final concentration of 1,500 cells/well (DLD1-BRCA2 KG) and 600 cells/well (DLD1-parental) in a 96-well plate. Four hours later, test compounds were added (the final concentration of DMSO was 1%) to the cells and media were replaced every 3-4 days for 14 days. To measure viability, cells were incubated in culture media supplemented with 0.1 mg/ml of Resazurin (Merck, Cat #R7017) for 4 hours. The fluorescence was measured at Ex/Em=560 nm/590 nm using EnSight multimode plate reader (Perkin Elmer). Data analysis and IC50 calculation was done using GraphPad Prism (Version 10.0.2).

Question: Which IC50 does the source give for `Cc1cccc(N(CC#Cc2ccc(N)nn2)C(=O)[C@@H]2CCC(=O)N2c2cc(C(F)(F)F)cc(C)n2)c1` [Example 1, (S)—N-(3-(6-aminopyridazin-3-yl)prop-2-yn-1-yl)-1-(6-methyl-4-(trifluoromethyl)pyridin-2-yl)-5-oxo-N-(m-tolyl)pyrrolidine-2-carboxamide] here?
Answer: < 1 µM

Question: For `Cc1cc(C(F)(F)F)cc(N2C(=O)CC[C@H]2C(=O)N(CC#Cc2ccc(N)nn2)c2ccc(F)c(C)c2F)n1` [Example 2, (S)-N-(3-(6-aminopyridazin-3-yl)prop-2-yn-1-yl)-N-(2,4-difluoro-3-methylphenyl)-1-(6-methyl-4-(trifluoromethyl)pyridin-2-yl)-5-oxopyrrolidine-2-carboxamide], which IC50 is on record?
Answer: < 1 µM

Question: With `Cc1cc(C(F)(F)F)cc(N2C(=O)CC[C@H]2C(=O)N(CC#Cc2ccc(N)nn2)c2ccc(F)c(Cl)c2)n1` [Example 3, (S)-N-(3-(6-aminopyridazin-3-yl)prop-2-yn-1-yl)-N-(3-chloro-4-fluorophenyl)-1-(6-methyl-4-(trifluoromethyl)pyridin-2-yl)-5-oxopyrrolidine-2-carboxamide] as the compound, how does the IC50 read?
Answer: < 1 µM

Question: With `Cc1cc(C(F)(F)F)cc(N2C(=O)CC[C@H]2C(=O)N(CC#Cc2ccc(N)nn2)c2ccc(F)c(Cl)c2F)n1` [Example 4, (S)-N-(3-(6-aminopyridazin-3-yl)prop-2-yn-1-yl)-N-(3-chloro-2,4-difluorophenyl)-1-(6-methyl-4-(trifluoromethyl)pyridin-2-yl)-5-oxopyrrolidine-2-carboxamide] as the compound, how does the IC50 read?
Answer: < 1 µM

Question: For `Cc1cc(C(F)(F)F)cc(N2C(=O)CC[C@H]2C(=O)N(CC#Cc2ccc(N)nn2)c2ccc(F)c(C)c2)n1` [Example 5, (2S)-N-(3-(6-aminopyridazin-3-yl)prop-2-ynyl]-N-(4-fluoro-3-methyl-phenyl)-1-[6-methyl-4-(trifluoromethyl)-2-pyridyl]-5-oxo-pyrrolidine-2-carboxamide], which IC50 is on record?
Answer: < 1 µM

Question: For `Cc1cc(C(F)(F)F)cc(N2C(=O)CC[C@H]2C(=O)N(CC#Cc2cnc(N)cn2)c2ccc(F)c(C)c2)n1` [Example 6, (2S)-N-[3-(5-aminopyrazin-2-yl)prop-2-ynyl]-N-(4-fluoro-3-methyl-phenyl)-1-[6-methyl-4-(trifluoromethyl)-2-pyridyl]-5-oxo-pyrrolidine-2-carboxamide], which IC50 is on record?
Answer: < 1 µM

Question: `Cc1cc(C(F)(F)F)cc(N2C(=O)CC[C@H]2C(=O)N(CC#Cc2cccc(=O)[nH]2)c2ccc(F)c(C)c2)n1` [Example 7, (2S)-N-(4-fluoro-3-methyl-phenyl)-1-[6-methyl-4-(trifluoromethyl)-2-pyridyl]-5-oxo-N-[3-(6-oxo-1H-pyridin-2-yl)prop-2-ynyl]pyrrolidine-2-carboxamide] was tested. Which IC50 did it give?
Answer: < 1 µM

Question: Which IC50 does the source give for `Cc1cc(C(F)(F)F)cc(N2C(=O)CC[C@H]2C(=O)N(CC#Cc2ccc(F)cn2)c2ccc(F)c(C)c2)n1` [Example 8, (S)-N-(4-fluoro-3-methylphenyl)-N-(3-(5-fluoropyridin-2-yl)prop-2-yn-1-yl)-1-(6-methyl-4-(trifluoromethyl)pyridin-2-yl)-5-oxopyrrolidine-2-carboxamide] here?
Answer: < 1 µM

Question: `Cc1cc(C(F)(F)F)cc(N2C(=O)CC[C@H]2C(=O)N(CC#Cc2cncn2C)c2ccc(F)c(C)c2)n1` [Example 9, (S)-N-(4-fluoro-3-methylphenyl)-N-(3-(1-methyl-1H-imidazol-5-yl)prop-2-yn-1-yl)-1-(6-methyl-4-(trifluoromethyl)pyridin-2-yl)-5-oxopyrrolidine-2-carboxamide] was tested. Which IC50 did it give?
Answer: < 1 µM

Question: How did the IC50 turn out when `Cc1cc(C(F)(F)F)cc(N2C(=O)CC[C@H]2C(=O)N(CC#Cc2cnc(N3CCOCC3)cn2)c2ccc(F)c(C)c2)n1` [Example 10, (S)-N-(4-fluoro-3-methylphenyl)-1-(6-methyl-4-(trifluoromethyl)pyridin-2-yl)-N-(3-(5-morpholinopyrazin-2-yl)prop-2-yn-1-yl)-5-oxopyrrolidine-2-carboxamide] was run?
Answer: < 1 µM

Question: How did the IC50 turn out when `CCN1CCN(c2cnc(C#CCN(C(=O)[C@@H]3CCC(=O)N3c3cc(C(F)(F)F)cc(C)n3)c3ccc(F)c(C)c3)cn2)CC1` [Example 11, (S)-N-(3-(5-(4-ethylpiperazin-1-yl)pyrazin-2-yl)prop-2-yn-1-yl)-N-(4-fluoro-3-methylphenyl)-1-(6-methyl-4-(trifluoromethyl)pyridin-2-yl)-5-oxopyrrolidine-2-carboxamide] was run?
Answer: < 1 µM

Question: How did the IC50 turn out when `Cc1cc(C(F)(F)F)cc(N2C(=O)CC[C@H]2C(=O)N(CC#Cc2ccc(C(N)=O)nc2)c2ccc(F)c(C)c2)n1` [Example 12, (S)-5-(3-(N-(4-fluoro-3-methyl-phenyl)-1-(6-methyl-4-(trifluoro-methyl)pyridin-2-yl)-5-oxo-pyrrolidine-2-carboxamido)prop-1-yn-1-yl)picolinamide] was run?
Answer: < 1 µM

Question: `CCN1CCN(CC#CCN(C(=O)[C@@H]2CCC(=O)N2c2cc(C(F)(F)F)cc(C)n2)c2ccc(F)c(C)c2F)CC1` [Example 13, (S)—N-(2,4-difluoro-3-methylphenyl)-N-(4-(4-ethylpiperazin-1-yl)but-2-yn-1-yl)-1-(6-methyl-4-(trifluoromethyl)pyridin-2-yl)-5-oxopyrrolidine-2-carboxamide] was tested. Which IC50 did it give?
Answer: 1.1 to 5 µM

Question: Which IC50 does the source give for `Cc1cc(C(F)(F)F)cc(N2C(=O)CC[C@H]2C(=O)N(CC#CCN2CCOCC2)c2ccc(F)c(C)c2F)n1` [Example 14, (S)—N-(2,4-difluoro-3-methylphenyl)-1-(6-methyl-4-(trifluoromethyl)pyridin-2-yl)-N-(4-morpholinobut-2-yn-1-yl)-5-oxopyrrolidine-2-carboxamide] here?
Answer: 1.1 to 5 µM

Question: Which IC50 does the source give for `Cc1cc(C(F)(F)F)cc(N2C(=O)CC[C@H]2C(=O)N(CC#CCN2CCN(c3cnccn3)CC2)c2ccc(F)c(C)c2F)n1` [Example 15, (S)—N-(2,4-difluoro-3-methylphenyl)-1-(6-methyl-4-(trifluoromethyl)pyridin-2-yl)-5-oxo-N-(4-(4-(pyrazin-2-yl)piperazin-1-yl)but-2-yn-1-yl)pyrrolidine-2-carboxamide] here?
Answer: 1.1 to 5 µM
